# In US20240293392A1, “INHIBITOR COMPOUNDS” (NeoPhore Limited, priority 2021, published 2024):
# Counter-ions that a name gives are not always drawn.
# Assays:
# [1] = target: T1, recombinant N-terminal PMS2 (residues 1-365) (Homo sapiens, UniProt P54278); assay: Fluorescence Polarisation Assay for PMS2; type: binding; settings: fluorescence polarisation probe displacement; 10 nM N-terminal PMS2, 5 nM probe compound; read-out: PMS2 IC50
# T1 construct: recombinant N-terminal PMS2 (residues 1-365)
# T1 sequence (P54278 1-365): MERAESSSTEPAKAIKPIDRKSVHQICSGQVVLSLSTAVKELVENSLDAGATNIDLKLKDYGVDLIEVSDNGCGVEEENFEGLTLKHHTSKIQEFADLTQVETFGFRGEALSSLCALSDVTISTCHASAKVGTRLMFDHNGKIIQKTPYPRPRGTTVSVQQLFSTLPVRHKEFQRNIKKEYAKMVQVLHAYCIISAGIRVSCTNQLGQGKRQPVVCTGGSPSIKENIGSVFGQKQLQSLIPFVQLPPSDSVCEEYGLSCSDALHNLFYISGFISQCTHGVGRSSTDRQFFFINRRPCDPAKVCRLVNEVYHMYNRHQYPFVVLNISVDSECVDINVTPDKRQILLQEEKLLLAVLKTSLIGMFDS
# How it was run: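 Competition fluorescence polarisation with 10 nM N-terminal PMS2 and 5 nM fluorescent probe (final), read after 1 h at room temperature following 30 min compound pre-incubation. Data normalised to no-inhibitor and no-enzyme controls; single-point screening or serial dilutions for potency.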
# [2] = target: T2, recombinant N-terminal MLH1 (residues 15-340) (Homo sapiens, UniProt P40692); assay: Fluorescence Polarisation Assay for MLH1; type: binding; settings: fluorescence polarisation probe displacement; 100 nM N-terminal MLH1, 5 nM probe compound
# T2 construct: recombinant N-terminal MLH1 (residues 15-340)
# T2 sequence (P40692 15-340): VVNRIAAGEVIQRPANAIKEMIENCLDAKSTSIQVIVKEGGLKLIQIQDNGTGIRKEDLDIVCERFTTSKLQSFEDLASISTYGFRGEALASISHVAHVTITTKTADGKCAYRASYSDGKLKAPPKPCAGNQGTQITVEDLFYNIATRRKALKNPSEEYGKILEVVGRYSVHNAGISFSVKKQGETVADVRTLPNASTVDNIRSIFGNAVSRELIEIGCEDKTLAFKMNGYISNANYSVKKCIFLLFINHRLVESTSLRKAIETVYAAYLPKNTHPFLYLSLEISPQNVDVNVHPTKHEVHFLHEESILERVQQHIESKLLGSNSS
# How it was run: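 FP displacement assay: 100 nM MLH1 (residues 15-340) preincubated 30 min at room temperature with compound in 25 mM HEPES pH 7.5, 250 mM NaCl, 10 mM MgCl2, 0.01% Triton X-100, 5 mM DTT, then 5 nM rhodamine-labelled probe added and read immediately. Data normalised to no-inhibitor and no-enzyme controls.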
SMILES,IC50 [1] [nM],IC50 [2] [nM]
"O=C(c1c(O)cc(O)cc1OCc1ccccc1)N1CCc2cccc(Nc3cncnc3)c2C1 [Example 71, (2-(Benzyloxy)-4,6-dihydroxyphenyl)(8-(pyrimidin-5-ylamino)-3,4-dihydroisoquinolin-2(1H)-yl)methanone]",1000 to 10000,< 1000
"NC(=O)c1cccc(Nc2cccc3c2CN(C(=O)c2c(O)cc(O)cc2OCc2ccccc2)CC3)c1 [Example 74, 3-((2-(2-(Benzyloxy)-4,6-dihydroxybenzoyl)-1,2,3,4-tetrahydroisoquinolin-8-yl)amino)benzamide]",> 10000,> 10000
"NC(=O)c1ccc(Nc2cccc3c2CN(C(=O)c2c(O)cc(O)cc2OCc2ccccc2)CC3)cc1 [Example 75, 4-((2-(2-(Benzyloxy)-4,6-dihydroxybenzoyl)-1,2,3,4-tetrahydroisoquinolin-8-yl)amino)benzamide]",> 10000,> 10000
"O=C(c1c(O)cc(O)cc1OCc1ccccc1)N1CCc2cccc(NC3CCCC3)c2C1 [Example 76, (2-(Benzyloxy)-4,6-dihydroxyphenyl)(8-(cyclopentylamino)-3,4-dihydroisoquinolin-2(1H)-yl)methanone]",> 10000,1000 to 10000
"CN1CCC(Nc2cccc3c2CN(C(=O)c2c(O)cc(O)cc2OCc2ccccc2)CC3)CC1 [Example 77, (2-(Benzyloxy)-4,6-dihydroxyphenyl)(8-((1-methylpiperidin-4-yl)amino)-3,4-dihydroisoquinolin-2(1H)-yl)methanone]",> 10000,> 10000
"CN1CCC(Nc2cccc3c2CN(C(=O)c2c(O)cc(O)cc2OCc2ccccc2)CC3)C1 (centres unmarked) [Example 78, (2-(Benzyloxy)-4,6-dihydroxyphenyl)(8-((1-methylpyrrolidin-3-yl)amino)-3,4-dihydroisoquinolin-2(1H)-yl)methanone]",> 10000,< 1000
"CNCc1cccc2c1CN(C(=O)c1c(O)cc(O)cc1OCc1ccccc1)C2 [Example 79, (2-(Benzyloxy)-4,6-dihydroxyphenyl) (4-((methylamino)methyl)isoindolin-2-yl) methanone]",1000 to 10000,1000 to 10000
"O=C(c1c(O)cc(O)cc1OCc1ccccc1)N1Cc2cccc(CNC3CCOC3)c2C1 (centres unmarked) [Example 80, (2-(Benzyloxy)-4,6-dihydroxyphenyl)(4-(((tetrahydrofuran-3-yl)amino)methyl)isoindolin-2-yl)methanone]",1000 to 10000,1000 to 10000
"O=C(c1c(O)cc(O)cc1OCc1ccccc1)N1Cc2cccc(CNC3COC3)c2C1 [Example 81, (2-(Benzyloxy)-4,6-dihydroxyphenyl)(4-((oxetan-3-ylamino)methyl)isoindolin-2-yl)methanone]",1000 to 10000,1000 to 10000
"CC1(NCc2cccc3c2CN(C(=O)c2c(O)cc(O)cc2OCc2ccccc2)C3)COC1 [Example 82, (2-(Benzyloxy)-4,6-dihydroxyphenyl)(4-(((3-methyloxetan-3-yl)amino)methyl)isoindolin-2-yl)methanone]",1000 to 10000,< 1000
"NCc1cccc2c1CN(C(=O)c1c(O)cc(O)cc1OCc1ccccc1)C2 [Example 83, (4-(Aminomethyl)isoindolin-2-yl)(2-(benzyloxy)-4,6-dihydroxyphenyl)methanone hydrochloride]",1000 to 10000,< 1000
"O=C(c1c(O)cc(O)cc1OCc1ccccc1)N1CCc2ccc(CNC3COC3)cc2C1 [Example 84, (2-(Benzyloxy)-4,6-dihydroxyphenyl)(7-((oxetan-3-ylamino)methyl)-3,4-dihydroisoquinolin-2(1H)-yl)methanone]",1000 to 10000,1000 to 10000
"O=C(c1c(O)cc(O)cc1OCc1ccccc1)N1CCc2ccc(CNC3CCOC3)cc2C1 (centres unmarked) [Example 85, (2-(Benzyloxy)-4,6-dihydroxyphenyl)(7-(((tetrahydrofuran-3-yl)amino)methyl)-3,4-dihydroisoquinolin-2(1H)-yl)methanone]",1000 to 10000,1000 to 10000
"CNC(=O)c1ccc2c(c1)CN(C(=O)c1c(O)cc(O)cc1OCc1ccccc1)C2 [Example 86, 2-(2-(Benzyloxy)-4,6-dihydroxybenzoyl)-N-methylisoindoline-5-carboxamide]",< 1000,< 1000
"CN(C)C(=O)c1ccc2c(c1)CN(C(=O)c1c(O)cc(O)cc1OCc1ccccc1)C2 [Example 87, 2-(2-(Benzyloxy)-4,6-dihydroxybenzoyl)-N,N-dimethylisoindoline-5-carboxamide]",< 1000,< 1000
"O=C(c1c(O)cc(O)cc1OCc1ccccc1)N1Cc2cccc(OC3CCOC3)c2C1 (centres unmarked) [Example 88, (2-(Benzyloxy)-4,6-dihydroxyphenyl)(4-((tetrahydrofuran-3-yl)oxy)isoindolin-2-yl)methanone]",1000 to 10000,1000 to 10000
"O=C(c1c(O)cc(O)cc1OCc1ccccc1)N1Cc2cccc(OCc3cncnc3)c2C1 [Example 89, (2-(Benzyloxy)-4,6-dihydroxyphenyl)(4-(pyrimidin-5-ylmethoxy)isoindolin-2-yl)methanone]",< 1000,< 1000
"O=C(c1c(O)cc(O)cc1OCc1ccccc1)N1Cc2cccc(OCC3CNC3)c2C1 [Example 90, (4-(Azetidin-3-ylmethoxy)isoindolin-2-yl)(2-(benzyloxy)-4,6-dihydroxyphenyl) methanone]",1000 to 10000,1000 to 10000
"N#Cc1cccc2c1CN(C(=O)c1c(O)cc(O)cc1OCc1ccccc1)C2 [Example 91, 2-(2-(Benzyloxy)-4,6-dihydroxybenzoyl)isoindoline-4-carbonitrile]",< 1000,1000 to 10000
"N#CC1CN(c2cccc3c2CN(C(=O)c2c(O)cc(O)cc2OCc2ccccc2)C3)C1 [Example 92, 1-(2-(2-(Benzyloxy)-4,6-dihydroxybenzoyl)isoindolin-4-yl)azetidine-3-carbonitrile]",1000 to 10000,1000 to 10000
"Nc1cccc2c1CN(C(=O)c1c(O)cc(O)cc1OCc1ccccc1)C2 [Example 93, (4-Aminoisoindolin-2-yl)(2-(benzyloxy)-4,6-dihydroxyphenyl)methanone]",1000 to 10000,< 1000
"CC(=O)Nc1cccc2c1CN(C(=O)c1c(O)cc(O)cc1OCc1ccccc1)C2 [Example 94, N-(2-(2-(benzyloxy)-4,6-dihydroxybenzoyl)isoindolin-4-yl)acetamide]",1000 to 10000,1000 to 10000
"CC(=O)NCc1cccc2c1CN(C(=O)c1c(O)cc(O)cc1OCc1ccccc1)C2 [Example 95, N-((2-(2-(Benzyloxy)-4,6-dihydroxybenzoyl)isoindolin-4-yl)methyl)acetamide]",1000 to 10000,1000 to 10000
"O=C(c1c(O)cc(O)cc1OCc1cccnc1)N1Cc2cccc(NC3CCOC3)c2C1 (centres unmarked) [Example 96, (2,4-dihydroxy-6-(pyridin-3-ylmethoxy)phenyl)(4-((tetrahydrofuran-3-yl)amino)isoindolin-2-yl)methanone]",> 10000,< 1000
"O=C(c1c(O)cc(O)cc1OCc1ccncc1)N1Cc2cccc(NC3CCOC3)c2C1 (centres unmarked) [Example 97, (2,4-Dihydroxy-6-(pyridin-4-ylmethoxy)phenyl)(4-((tetrahydrofuran-3-yl)amino)isoindolin-2-yl)methanone]",1000 to 10000,< 1000
